Experimental data from patent US5532258A, “H2 -receptor antagonist thiazoles” (Fujisawa Pharmaceutical Co., Ltd., priority 1991, dated 1996).

Columns and labels:
[1] = tested on: Gastric secretion; test: Test C (Gastric secretion from lumen perfused stomach in anesthetized rats); format: in vivo, Male Sprague-Dawley rats; settings: 1 mg/kg intravenously, histamine (3 mg/kg/hr) i.v. stimulation
Method: Test C (Gastric secretion from lumen perfused stomach in anesthetized rats):
Male Sprague-Dawley rats weighing about 250 g were used. Rats were deprived of food but allowed free access to water for 24 hours. The animals were anesthteized with 1.25 g/kg urethane intraperitoneally. The abdomen was opened and the gastric lumen was perfused with saline throughout the experiment. The perfusate was titrated continuously against 25 mM sodium hydroxide to maintain the perfusate solution at pH 7.0. Gastric secretion was stimulated by intravenous infusion with histamine (3 mg/kg/hr). After reaching plateau, test compound (1 mg/kg) was given intravenously at a volume of 2 ml/kg. Effect of drug was expressed as maximal inhibition of acid output calculated by the amount of sodium hydroxide required.

[2] = tested on: Gastric secretion; test: Test A (Gastric secretion in Heidenhain pouch dogs); format: in vivo, Beagle dogs; settings: 3.2 mg/kg orally, tetragastrin (10 μg/kg/hr) i.v. stimulation, 3 hours
Method: Test A (Gastric secretion in Heidenhain pouch dogs):
Beagle dogs, weighing about 8-13 kg, were used for the study on gastric secretion. The animals were surgically provided with a vagally denervated Heidenhain pouch. One month or more later, the dogs were fasted overnight. Gastric secretion was stimulated by an intravenous infusion of tetragastrin (10 μg/kg/hr). Gastric juice was collected at 15 minutes intervals. After the secretion plateau had been established, test compound (3.2 mg/kg) suspended in 0.1% methyl cellulose solution was administered orally. Gastric juice was collected at 15 minutes intervals over 3 hours period. Acid concentration was determined by titrating an aliquot against 0.1N sodium hydroxide using automatic titrator (Hiranuma RAT-11 Type). Total acid output was calculated by multiplying the volume of gastric juice by acid concentration, and percentage inhibition was calculated by comparing total acid output before adminstration of test compound with that after administration of test compound.

[3] = tested on: stress ulcer; test: Test B (Inhibition of stress ulcer); format: in vivo, male Sprague-Dawley rats; settings: rats; 32 mg/kg orally just before stress; restraint in water bath 22° C. for 7 hours; vs control group
Method: Test B (Inhibition of stress ulcer):
Five male Sprague-Dawley rats, aged 7 weeks, were fasted but allowed free access to water for 24 hours. Animals were placed in a restraint cage and immersed to a level of the xiphoid in a water bath kept 22° C. for 7 hours. Each of the test compounds (32 mg/kg) suspended in 0.1% methylcellulose solution was administered orally just before the stress subjection. Animals were sacrificed and stomachs were removed. After fixing with 2% formalin, stomachs were opened along the greater curvature and area of ulcers was measured. Percentage inhibition was calculated by comparing the mean area of ulcers (mm^2) in the test group with that in the control group.

NC(=O)NCc1cccc(-c2csc(N=C(N)N)n2)c1 [Test Compound (a), 4-(3-Ureidomethylphenyl)-2-(diaminomethyleneamino)thiazole]
Inhibition (%), maximal inhibition of acid output [1]: 99%

CNC(N)=Nc1nc(-c2cccc(CNC(C)=O)c2)cs1 [Test Compound (b), 4-(3-Acetylaminomethylphenyl)-2-[[(amino)(methylamino)methylene]amino]thiazole]
Inhibition (%) of total acid output [2]: 88.1%

CCNC(N)=Nc1nc(-c2cccc(CNC(C)=O)c2)cs1 [Test Compound (c), 4-(3-Acetylaminomethylphenyl)-2-[[(amino)(ethylamino)methylene]amino]thiazole]
Inhibition (%) of area of ulcers [3]: 88.1%
